Source: patent publication US20090012152A1, “Use of Tetramic Acid Derivatives for Controlling Insects from the Genus of the Plane Lice (Sternorrhyncha)” (Bayer CropScience Aktiengesellschaft, priority 2005, published 2009)

How the values were obtained:
Type in all cases: in vivo
Psylla piri [1] = test: Example 6: pear trees treated against Psylla piri; conditions: larvae on shoots, % a.i.: amitraz 0.05, I-9, I-2, I-1 0.096; for Kill (%) 3 d: 3 d after last of two treatments; for Kill (%) 10 d: 10 d after last of two treatments; for Kill (%) 20 d: 20 d after last of two treatments
Method: In three replications, in each case 4 about 4-year-old pear trees of the cultivar “Williams Christ” are treated against Psylla piri. Two applications are carried out at an interval of 11 days using a motor-operated barrow-mounted sprayer. Here, the active compounds Example (I-9) (240 SC), Example (I-2) (240 SC) and Example (I-1) (240 SC) are tested against the commercial standard Amitraz (200 EC) at the stated amounts. The application rate is 2000 l of water/ha.
Evaluation is carried out 3, 10 and 20 days after the last treatment by rating the kill of the larvae in percent on the shoots.

Bemisia argentifolii [2] = test: Example 36: aubergine plants (Ryoma) treated against Bemisia argentifolii; conditions: nymphs on leaves, % a.i.: pymetrozine 0.0125, I-4 0.072, I-8 0.06; for Kill (%) 13 d: 13 d after treatment; for Kill (%) 20 d: 20 d after treatment; for Kill (%) 27 d: 27 d after treatment
Method: In three replications, in each case four aubergine plants of the cultivar “Ryoma” are treated against Bemisia argentifolii. The application is carried out using a motor-operated knapsack sprayer. Here, the active compounds Example (I-4) and Example (I-8), in a tank mix with 0.2% a.i. of rapeseed oil methyl ester (500 EW), and the commercial standard pymetrozine (25 WP) are tested at the stated application rates. The application rate is 3200 l of water/ha.
Evaluation is carried out 13, 20 and 27 days after the treatment by rating the kill of the nymphs on the leaves.

Nasonovia ribisnigri = test: Example 42: head lettuce treated against Nasonovia ribisnigri; conditions: on plants, g a.i./ha: Pirimor 150, I-4 48, I-8 42
Method: In four replications, plots of a size of 5 m^2 with head lettuce are, two weeks after transplantation, treated against Nasonovia ribisnigri. The application is carried out using a knapsack sprayer operated with pressurized air. Here, the active compounds Example (I-4) (240 SC) and Example (I-8) (240 SC) are, in a tank mix with 0.2% a.i. of rapeseed oil methyl ester (500 EW), tested against the commercial standard Pirimor, at the stated application rates. The application rate is 500 l of water/ha.
Evaluation is carried out 7, 14 and 26 days after the treatment by rating the kill of the animals on the plants.

Saissetia oleae = test: Example 13: orange trees treated against Saissetia oleae; conditions: nymphs on leaves, g a.i./ha/m crown height: buprofezin 500, I-4 72, I-8 30
Method: In three replications, in each case two about 8-year-old orange trees are treated against Saissetia oleae. Here, the active compounds Example (I-4) (240 SC) and Example (I-8) (250 SC) in a tank mix with 0.2% a.i. of rapeseed oil methyl ester (500 EW) at the stated application rate are tested against the commercial standard buprofezin in a tank mix with 0.4% a.i. of Oliocin (800 EW) at the stated application rate. The application is carried out using a motor-operated knapsack sprayer. The application rate is 3000 l of water/ha. Two treatments are carried out, at an interval of 29 days.
Evaluation is carried out 24 and 44 days after the last treatment by rating the kill of the nymphs on the leaves.

Myzus persicae [3] = test: Example 50: tomatoes treated against Myzus persicae; conditions: nymphs on leaves, g a.i./ha: acetamiprid 50, I-9 36, I-4 48
Method: In two replications, plots of a size of about 43 m^2 with tomatoes of the cultivar “Yaqui” are treated against Myzus persicae. The application is carried out using a motor-operated knapsack sprayer. Here, the active compounds Example (I-9) (240 SC) and Example (I-4) (240 SC), in a tank mix with 0.1% a.i. of rapeseed oil methyl ester (500 EW), and the standard acetamiprid (20 WP) are applied at the stated application rates. The application rate is 208 l of water/ha.
Evaluation is carried out 3 and 10 days after the treatment by rating the kill of the nymphs on the leaves.

Psylla piri [4] = test: Example 5: pear trees treated against Psylla piri; conditions: nymphs on shoots, g a.i./ha/m crown height: amitraz 266, I-4 72
Method: In three replications, pear trees of the cultivar “Williams Christ” are treated against Psylla piri. Application is shortly before the eggs hatch. The application is carried out using a barrow-mounted sprayer operated with pressurized air. Here, the active compound Example (I-4) (240 SC) is tested in a tank mix with 0.1% a.i. rapeseed oil methyl ester (500 EW) at the stated amount against the standard amitraz (200 EC) at the stated amount. The application rate is 1000 l of water/ha.
Evaluation is carried out 7, 14 and 21 days after the treatment by rating the kill of the nymphs on the shoots.

Paratrioza cockerelli = test: Example 7: bell peppers treated against Paratrioza cockerelli; conditions: nymphs on leaves, g a.i./ha: imidacloprid 52.6, I-4 72, dimethoate 561
Method: In four replications, plots of a size of about 7 m^2 with bell peppers of the cultivar “Jupiter” are treated against Paratrioza cockerelli. The application is carried out with a knapsack sprayer operated with pressurized air. Here, the active compound Example (I-4) (240 SC) is applied in a tank mix with 0.2% a.i. of rapeseed oil methyl ester (500 EW) and the commercial standards imidacloprid 192 SC and dimethoate (480 EC) are applied in a tank mix with 0.125% Induce at the stated application rates. The application is carried out with an application rate of 467 l of water/ha.
Evaluation is carried out 7 and 15 days after the treatment by rating the kill of the animals (nymphs) on the leaves.

Macrosiphum euphorbiae = test: Example 46: head lettuce treated against Macrosiphum euphorbiae; conditions: nymphs on plants, g a.i./ha: endosulfan 1120, I-4 48
Method: (§1) In four replications, plots of a size of about 33 m^2 with head lettuce of the cultivar “PIC 714” are treated against Aulacorthum solani, Macrosiphum euphorbiae and Myzus persicae. The application is carried out using a tractor sprayer. Here, the active compound Example (I-4) (240 SC), in a tank mix with 0.2% a.i. of rapeseed oil methyl ester (500 EW), is tested against the commercial standard endosulfan (360 EC), at the stated application rates. The application rate is 187 l of water/ha. Two treatments are carried out, at an interval of 22 days.
(§2) Evaluation is carried out 8, 22, 30 and 40 days after the first treatment by rating the kill of the nymphs on the plants.

Aulacorthum solani = test: Example 46: head lettuce treated against Aulacorthum solani; conditions: nymphs on plants, g a.i./ha: endosulfan 1120, I-4 48
Method: as §1, §2

Myzus persicae [5] = test: Example 46: head lettuce treated against Myzus persicae; conditions: nymphs on plants, g a.i./ha: endosulfan 1120, I-4 48
Method: as §1, §2

Bemisia argentifolii [6] = test: Example 37: cantaloupe melons treated against Bemisia argentifolii; conditions: nymphs on leaves, g a.i./ha: endosulfan 1120, I-4 48
Method: In four replications, plots of a size of about 39 m^2 with cantaloupe melons of the cultivar “Western Shipper” are treated against Bemisia argentifolii. The application is carried out using a knapsack sprayer operated with pressurized air. Here, the active compound Example (I-4) (240 SC), in a tank mix with 0.2 a.i. of rapeseed oil methyl ester (500 EW), and the commercial standard endosulfan (360 EC) are tested at the stated application rates. Two applications are carried out at an interval of 16 days. The application rate is 187 l of water/ha.
Evaluation is carried out 5, 13, 21 and 29 days after the first treatment by rating the kill of the animals (nymphs) on the leaves.

Pemphigus bursarius = test: Example 3: chrysanthemums, lettuce root aphid; conditions: on roots, drip irrigation 0.1%
Method: In three replications, in each case 10 about 5-month-old chrysanthemums (Camilla) in 2 l-vessels are treated against the lettuce root aphid Pemphigus bursarius. Here, the active compound Example (I-4) (240 SC) is applied with a knapsack sprayer operated by pressurized air at the beginning of the infestation at the stated application rates to the above-ground parts of the plants. The soil is covered with a film. The application rate is 600 l of water/ha. 0.1% a.i. of rapeseed oil methyl ester (500 EW) is added to the spray liquor. Omethoate as drip irrigation in a concentration of 0.1% is used for comparison. The application is carried out two days later.
The kill in percent is determined on the roots. […]

Myzus persicae [7] = test: Example 48: aubergine plants treated against Myzus persicae; conditions: on leaves, rate (g of a.i./ha): pymethrozine 0.0125, I-4 0.024
Method: In three replications, four aubergine plants (age about 7 months) of the cultivar “Hayabusa” are treated against Myzus persicae. The application is carried out using a motor-operated knapsack sprayer. Here, the active compound Example (I-4) (240 SC), in a tank mix with 0.1% a.i. of rapeseed oil methyl ester (500 EW), and the commercial standard pymethrozine (25 WP) are tested at the stated application rates. The application rate is 3000 l of water/ha.
Evaluation is carried out 7, 14, 21 and 29 days after the treatment by rating the kill of the animals on the leaves.

[8] = 8 d after first of two treatments
[9] = 22 d after first of two treatments
[10] = 30 d after first of two treatments
[11] = 40 d after first of two treatments

SMILES: COC1CCC2(CC1)NC(=O)C(c1cc(C)ccc1Br)=C2OC(=O)C(C)C (stereo not drawn) [Example (I-1)]
- Kill (%) 3 d (Psylla piri [1]): 90.0%
- Kill (%) 10 d (Psylla piri [1]): 96.6%
- Kill (%) 20 d (Psylla piri [1]): 95.0%

SMILES: CCOC(=O)OC1=C(c2cc(C)c(Cl)cc2C)C(=O)NC12CCC(OC)CC2 (stereo not drawn) [Example (I-8)]
- Kill (%) 13 d (Bemisia argentifolii [2]): 99.5%
- Kill (%) 20 d (Bemisia argentifolii [2]): 99.9%
- Kill (%) 27 d (Bemisia argentifolii [2]): 97%
- Kill (%) 7 d (Nasonovia ribisnigri; 7 d after treatment): 80.8%
- Kill (%) 14 d (Nasonovia ribisnigri; 14 d after treatment): 93.6%
- Kill (%) 26 d (Nasonovia ribisnigri; 26 d after treatment): 92.7%
- Kill (%) 24 d (Saissetia oleae; 24 d after last of two treatments): 66.5%
- Kill (%) 44 d (Saissetia oleae; 44 d after last of two treatments): 56.1%

SMILES: C/C(=N\C#N)N(C)Cc1ccc(Cl)nc1 [acetamiprid, reference compound]
- Kill (%) 3 d (Myzus persicae [3]; 3 d after treatment): 78.7%
- Kill (%) 10 d (Myzus persicae [3]; 10 d after treatment): 73.5%

SMILES: Cc1ccc(/N=C/N(C)/C=N/c2ccc(C)cc2C)c(C)c1 [amitraz, reference compound]
- Kill (%) 3 d (Psylla piri [1]): 54.3%
- Kill (%) 10 d (Psylla piri [1]): 56.7%
- Kill (%) 20 d (Psylla piri [1]): 21.4%
- Kill (%) 7 d (Psylla piri [4]; 7 d after treatment): 100%
- Kill (%) 14 d (Psylla piri [4]; 14 d after treatment): 95.2%
- Kill (%) 21 d (Psylla piri [4]; 21 d after treatment): 75%

SMILES: CNC(=O)CSP(=S)(OC)OC [dimethoate]
- Kill (%) 7 d (Paratrioza cockerelli; 7 d after treatment): 63%
- Kill (%) 15 d (Paratrioza cockerelli; 15 d after treatment): 0%

SMILES: O=S1OCC2C(CO1)C1(Cl)C(Cl)=C(Cl)C2(Cl)C1(Cl)Cl (stereo not drawn) [endosulfan, reference compound]
- Kill (%) 8 d (Macrosiphum euphorbiae; [8]): 100%
- Kill (%) 22 d (Macrosiphum euphorbiae; [9]): 100%
- Kill (%) 30 d (Macrosiphum euphorbiae; [10]): 99%
- Kill (%) 40 d (Macrosiphum euphorbiae; [11]): 96%
- Kill (%) 8 d (Aulacorthum solani; [8]): 96%
- Kill (%) 22 d (Aulacorthum solani; [9]): 88%
- Kill (%) 30 d (Aulacorthum solani; [10]): 98%
- Kill (%) 40 d (Aulacorthum solani; [11]): 53%
- Kill (%) 8 d (Myzus persicae [5]; [8]): 95%
- Kill (%) 22 d (Myzus persicae [5]; [9]): 61%
- Kill (%) 30 d (Myzus persicae [5]; [10]): 100%
- Kill (%) 5 d (Bemisia argentifolii [6]; 5 d after first of two treatments): 0%
- Kill (%) 13 d (Bemisia argentifolii [6]; 13 d after first of two treatments): 100%
- Kill (%) 21 d (Bemisia argentifolii [6]; 21 d after first of two treatments): 80.8%
- Kill (%) 29 d (Bemisia argentifolii [6]; 29 d after first of two treatments): 66.7%

SMILES: CNC(=O)CSP(=O)(OC)OC [omethoate, reference compound]
- Kill (%) 7 d (Pemphigus bursarius; 7 d): 20 (7 d) %
- Kill (%) 15 d (Pemphigus bursarius; 15 d): 70.6 (15 d) %

SMILES: CC1=NNC(=O)N(/N=C/c2cccnc2)C1 [pymetrozine, reference compound]
- Kill (%) 13 d (Bemisia argentifolii [2]): 79%
- Kill (%) 20 d (Bemisia argentifolii [2]): 74%
- Kill (%) 27 d (Bemisia argentifolii [2]): 75%
- Kill (%) 7 d (Myzus persicae [7]; 7 d after treatment): 99.9%
- Kill (%) 14 d (Myzus persicae [7]; 14 d after treatment): 99%
- Kill (%) 21 d (Myzus persicae [7]; 21 d after treatment): 95%
- Kill (%) 29 d (Myzus persicae [7]; 29 d after treatment): 73%
